Data set [1] has as its system K562 cells. In words: MTT anti-proliferative assay, K562. In kind it is cell-based. The note with it: Homo sapiens. Here is the method:
(§1) The antiproliferative activity of the target indazole derivatives was evaluated against a panel of human cancer cell lines (human chronic myeloid leukemia cell lines K562; human lung cancer cell lines A549; human prostate cancer cell lines PC-3; human hepatoma cell lines HepG-2) in vitro, and human embryonic kidney cell lines HEK-293 were used to evaluate the cytotoxicity of a normal cell with high activity derivatives by MTT assay. Moreover, 5-fluorouracil (5-Fu), a broad-spectrum drug antitumor drug with therapeutic effects on various cancers, was used as a positive control.
(§2) Lung (A549), chronic myeloid leukemia (K562), prostate (PC3), and live (Hep-G2) cells were purchased from the Cell Bank of the Chinese Academy of Sciences (Kunming, China). A549, K562, and PC-3 cells were cultured in RPMI-1640 medium and the liver cells Hep-G2 were cultured in MEM medium. All mediums were supplemented with 10% FBS, 100 μg/mL penicillin and 100 μg/mL streptomycin. All cells were cultivated in a 5% CO2 incubator at 37 °C.
(§3) To investigate the anticancer activity of indazole derivatives, A549, K562, PC3, and Hep-G2 cells were treated with targets compounds respectively for 48 h in a range of concentrations (from 0.625 to 10 μM) and subjected to a proliferation assay using the MTT assay. Exponentially growing cells were seeded at a density of 5000 cells per well in 96-well plates containing 100 μL of fresh growth medium. After allowing the cells to attach for 24 h, target compounds were added. After incubation for 48 h, viable cells were stained with MTT (0.5 mg/mL) for 4 h, and the produced formazan crystals were dissolved with 150 µL of dimethyl sulfoxide. Absorbance was measured at 490 nm using an automated microplate reader (Tecan, Infinite M200 Pro, Männedorf, Switzerland). The relative cell viability was calculated according to the following equation: Cell viability%=experimental OD value/control OD value×100%Cell inhibition%=control OD value−experimental OD value/control OD value×100%
(§4) Cell inhibition%=control OD value−experimental OD value/control OD value×100%
(In general: Tetrazolium assays rely on reduction of a dye to a coloured formazan, in cell work by metabolically active cells.)

Data set [2] relates to PC-3 cells. In words: MTT anti-proliferative assay, PC-3. In kind it is cell-based. The note with it: Homo sapiens, PC-3, 48 h. Here is the method:
as §1, §2
as §3, with “Exponentially” for “To investigate the anticancer activity of indazole derivatives, A549, K562, PC3, and Hep-G2 cells were treated with targets compounds respectively for 48 h in a range of concentrations (from 0.625 to 10 μM) and subjected to a proliferation assay using the MTT assay. Exponentially”
as §4

Data set [3] relates to A549 cells. The data set can be described thus: MTT anti-proliferative assay, A549. The note with it: Homo sapiens, read-out: IC50 ± SD, A549. In kind it is cell-based. Here is the method: as §1, §2, §3, §4
The test system of data set [4] is Hep-G2 cells. The data set can be described thus: MTT anti-proliferative assay, Hep-G2. The note with it: Homo sapiens. In kind it is cell-based. Here is the method: as §1, §2, §3, §4
A short description of data set [5]: MTT cytotoxicity to normal cells, HEK-293. In kind it is cell-based, human. The note with it: human, HEK-293 cells (normal human embryonic kidney cells); normal cell HEK-293; MTT; read-out: IC50 ± SD, HEK-293. Here is the method:
as §1, §3, §4

Data set [6] has as its system HEK-293 cells. In words: MTT cytotoxicity to normal cells, HEK-293. It counts as cell-based, human. To be noted: for Selectivity index (SI) for Hep-G2 cells: IC50 in HEK-293 divided by IC50 in Hep-G2. Here is the method:
as §1, §3, §4

For data set [7], the system named is K562 cells. The data set can be described thus: Cell cycle analysis (PI staining, flow cytometry). The note with it: K562, positive control, 24 h. In kind it is cell-based, human. Here is the method:
To further explore the antitumor properties of 6o, the effect of 6o on cell cycle distribution was evaluated. PI staining was used to perform cell cycle analysis.
To analyze the cell cycle, a PI apoptosis detection kit (Solarbio, Wuhan, China) was utilized. After K562 cells were seeded in 6-well plates for 24 h, compound 6o (10, 12 and 14 μM) or positive control was added to the plates for another 24 h. Then, cells were washed three times with PBS, and fixed with 70% ethanol at 4°C for overnight. After fixed, cells were again washed with PBS and incubated at 37 °C with 100 μL RNase A for 30 min. After this, cells were incubated with 400 μL PI for 30 min at 4 °C. After staining, cells were subjected to Flow Cytometry using Cell Quest software (BD, SN: E34297502014) and the PI fluorescence was recorded in the FL2 channel. Data were analyzed using FlowJo V10.
(In general: Flow cytometry measures light scatter and fluorescence of single cells or particles in a stream.)

Setting [8] is: Table 1, 48 h, read-out: IC50 ± SD, K562.
Where [9] appears, read: Table 1, read-out: IC50 ± SD, PC-3.
Where [10] appears, read: HepG2, 48 h, Table 1, 48 h, read-out: IC50 ± SD, Hep-G2.
The mark [11] stands for this setting: HepG2, Table 3, read-out: IC50 ± SD, Hep-G2.
Setting [12] is: Table 2, read-out: IC50 ± SD, PC-3.
The mark [13] stands for this setting: HepG2, 48 h, Table 2, 48 h, read-out: IC50 ± SD, Hep-G2.
[14] abbreviates: Table 2, 48 h, read-out: IC50 ± SD, K562.

Like-named read-outs stand apart in the source and are kept apart here.

On to `O=C(CSc1ccc(Br)cc1)Nc1n[nH]c2ccc(-c3cc(F)cc(F)c3)cc12` [compound 5k], for which the melting point was 204 to 205 °C. Also, the half-maximal inhibitory concentration (IC50) in data set [1] (setting [8]) was determined as 8.86 ± 0.66 µM. Also, the half-inhibitory concentration (IC50) in data set [2] (setting [9]) was 12.6 ± 2.17 µM. In data set [3] (Table 1, 48 h), the IC50 came to 7.78 ± 0.18 µM. The IC50 in data set [4] (setting [10]) was found to be 3.32 ± 0.43 µM. Further, in data set [4] (setting [11]), the IC50 came out at 3.32 ± 0.43 µM. For the same molecule, the IC50 at 48 h in data set [5] stood at 12.2 ± 2.85 µM. Moreover, the “Selectivity index (SI) for Hep-G2 cells” value in data set [6] stood at 3.67.

On to `O=c1[nH]cc(F)c(=O)[nH]1` [5-Fu, 5-fluorouracil, reference compound], for which the IC50 in data set [1] (setting [8]) was found to be 8.53 ± 2.27 µM; in data set [1] (Table 3, read-out: IC50 ± SD, K562), 8.53 ± 2.27 µM; in data set [2] (setting [9]) it was 9.17 ± 3.93 µM; in data set [2] (setting [12]), 3.47 ± 0.21 µM; in data set [3] (Table 1, 48 h), 8.37 ± 0.79 µM; in data set [4] (setting [10]), 9.78 ± 1.58 µM. The results for the IC50 in data set [4] (setting [13]) and in data set [4] (setting [11]) were 2.25 ± 0.46 µM and 9.78 ± 1.58 µM, respectively. In addition, in data set [7], the “increase of the proportion of the G0/G1 phase after drug treatment” value is reported as 10%. In addition, in data set [5], the 50% inhibitory concentration (IC50) at 48 h was 1.16 ± 0.11 µM. The “Selectivity index (SI) for Hep-G2 cells” value in data set [6] came out at 0.12. The “Selectivity index (SI) for K562 cells” value in data set [6] (IC50 in HEK-293 divided by IC50 in K562) is on record as 0.14.

The molecule `O=C(CN1CCN(c2ccc(F)cc2F)CC1)Nc1n[nH]c2ccc(-c3ccc(Cl)c(Cl)c3)cc12` [6q] showed a melting point of 160 to 162 °C. Also, the half-inhibitory concentration (IC50) in data set [1] (setting [14]) came out at 5.61 ± 1.14 µM. Further, the half-maximal inhibitory concentration (IC50) in data set [2] (setting [12]) is 10.7 ± 1.66 µM. Moreover, the concentration for half-maximal inhibition (IC50) in data set [3] (Table 2, 48 h) stood at 12.8 ± 2.66 µM. For the same molecule, the IC50 in data set [4] (setting [13]) turned out to be 2.7 ± 0.47 µM.

In turn, `O=C(CN1CCN(c2ccccc2Cl)CC1)Nc1n[nH]c2ccc(-c3ccc(Cl)c(F)c3)cc12` [6p] came in with a melting point of 163 to 165 °C. Moreover, in data set [1] (setting [14]), the IC50 was greater than 50 µM. In data set [2] (setting [12]), the IC50 was 32.1 ± 2.26 µM. For the same molecule, the IC50 in data set [3] (Table 2, 48 h) was determined as 13.6 ± 0.53 µM. Moreover, in data set [4] (setting [13]), the concentration for half-maximal inhibition (IC50) is 2.38 ± 0.37 µM.

For `COc1ccc(SCC(=O)Nc2n[nH]c3ccc(-c4cc(F)cc(F)c4)cc23)cc1` [5j], the melting point is 204 to 205 °C. The concentration for half-maximal inhibition (IC50) in data set [1] (setting [8]) is 8.49 ± 1.87 µM. In addition, in data set [2] (setting [9]), the IC50 was found to be 14.7 ± 4.55 µM. Moreover, the half-inhibitory concentration (IC50) in data set [3] (Table 1, 48 h) was found to be 3.99 ± 0.16 µM. In data set [4] (setting [10]), the half-maximal inhibitory concentration (IC50) was determined as 5.36 ± 0.25 µM.

`O=C(CSc1ccc(Cl)cc1)Nc1n[nH]c2ccc(-c3cc(F)cc(F)c3)cc12` [5m] yielded a melting point of 200 to 202 °C. For the same molecule, the 50% inhibitory concentration (IC50) in data set [1] (setting [8]) worked out at 13.1 ± 0.46 µM. In data set [2] (setting [9]), the IC50 was greater than 50 µM. Moreover, in data set [3] (Table 1, 48 h), the IC50 was found to be 20.2 ± 3.14 µM. Moreover, the 50% inhibitory concentration (IC50) in data set [4] (setting [10]) was determined as 35.6 ± 4.21 µM.

For the molecule `O=C(CSc1ccc(Br)cc1)Nc1n[nH]c2ccc(-c3ccc(Cl)c(F)c3)cc12` [5h], the melting point was 267 to 268 °C. Besides, in data set [1] (setting [8]), the concentration for half-maximal inhibition (IC50) amounted to 14.3 ± 2.13 µM. The IC50 in data set [2] (setting [9]) came out at 13 ± 7.53 µM. For the same molecule, in data set [3] (Table 1, 48 h), the IC50 was found to be 9.26 ± 0.37 µM. The IC50 in data set [4] (setting [10]) is 11.3 ± 0.75 µM.

`O=C(CN1CCN(c2ccncc2)CC1)Nc1n[nH]c2ccc(-c3cc(F)cc(F)c3)cc12` [6l] displayed a melting point of 200 to 201 °C. Further, the IC50 in data set [1] (setting [14]) came out at 14 ± 0.49 µM. For the same molecule, the IC50 in data set [2] (setting [12]) came out at 2.89 ± 0.16 µM. Moreover, the IC50 in data set [3] (Table 2, 48 h) was 12.9 ± 0.21 µM. Also, in data set [4] (setting [13]), the concentration for half-maximal inhibition (IC50) was found to be 7.65 ± 3.34 µM.

Molecule `O=C(CN1CCN(c2ccncc2)CC1)Nc1n[nH]c2ccc(-c3ccc(Cl)c(Cl)c3)cc12` [6u] gave a melting point of 195 to 197 °C. Further, the IC50 in data set [1] (setting [14]) is greater than 50 µM. The IC50 in data set [2] (setting [12]) amounted to 27.7 ± 16.9 µM. The IC50 in data set [3] (Table 2, 48 h) is 17.6 ± 4.11 µM. Also, the IC50 in data set [4] (setting [13]) was 20 ± 3.04 µM.

For `COc1ccc(-c2ccc3[nH]nc(NC(=O)CN4CCN(c5ccc(Cl)c(Cl)c5)CC4)c3c2)cc1` [6b], the melting point lay in the range of 200 to 201 °C. Further, in data set [1] (setting [14]), the 50% inhibitory concentration (IC50) stood at 18.6 ± 2.14 µM. For the same molecule, the IC50 in data set [2] (setting [12]) came to 9.69 ± 0.26 µM. The half-inhibitory concentration (IC50) in data set [3] (Table 2, 48 h) was 19.9 ± 1.15 µM. The IC50 in data set [4] (setting [13]) turned out to be 1.69 ± 0.68 µM.

On to `O=C(CN1CCN(c2ccc(Br)cc2)CC1)Nc1n[nH]c2ccc(-c3cc(F)cc(F)c3)cc12` [6i], for which the melting point lay in the range of 184 to 186 °C. Besides, the IC50 in data set [1] (setting [14]) was found to be 13.2 ± 1.44 µM. Also, the IC50 in data set [2] (setting [12]) was 12.8 ± 2.95 µM. In data set [3] (Table 2, 48 h), the IC50 worked out at 28.6 ± 2.52 µM. The IC50 in data set [4] (setting [13]) was 2.58 ± 0.42 µM.

For `O=C(CN1CCN(c2ccc(Cl)cc2)CC1)Nc1n[nH]c2ccc(-c3cc(F)cc(F)c3)cc12` [6j], the melting point was in the range of 179 to 181 °C. Besides, the IC50 in data set [1] (setting [14]) stood at 7.78 ± 0.1 µM. Moreover, the IC50 in data set [2] (setting [12]) amounted to 7.58 ± 1.01 µM. For the same molecule, the IC50 in data set [3] (Table 2, 48 h) is 20.3 ± 1.24 µM. Moreover, in data set [4] (setting [13]), the IC50 came to 3.87 ± 0.47 µM.

For orientation: melting point means the temperature, or range, at which the solid turns liquid. As usually defined, the IC50 is the point on the concentration scale where inhibition reaches its midpoint.

The values above are taken from PMC10218234, “Design, Synthesis and Antitumor Activity of 1H-indazole-3-amine Derivatives” (International Journal of Molecular Sciences, 2023).
